# According to ChEMBL document CHEMBL5316338, “Discovery of Novel PTP1B Inhibitors with Once-Weekly Therapeutic Potential for Type 2 Diabetes: Design, Synthesis, and In Vitro and In Vivo Investigations of BimBH3 Peptide Analogues” (J Med Chem, 2023):
# Numbered stars: 1 amine (or outer) side, 2 acyl side, 3 side chain; on linkers, the order of the positions; unused ones are H or OH. Square brackets hold non-standard residues; d marks the D form. Peptide text beside a SMILES is read from it. * marks the point of attachment. ξ: configuration not given here. C18 diacid = O=C(O)CCCCCCCCCCCCCCCCC(=O)*; γGlu = O=C(O)[C@H](CCC(=O)[*:2])N[*:1]; C14 diacid = O=C(O)CCCCCCCCCCCCC(=O)*; Adipoyl = O=C(CCCCC(=O)[*:2])[*:1]; Glutaryl = O=C(CCCC(=O)[*:2])[*:1]; HOOC(CH2)6CO = O=C(O)CCCCCCC(=O)*; Malonyl = O=C(CC(=O)[*:2])[*:1]; ξR = N=C(N)NCCCC(N)C(=O)O; Heptanoyl = CCCCCCC(=O)*; Hexanoyl = CCCCCC(=O)*; Pentanoyl = CCCCC(=O)*; AEEA = NCCOCCOCC(=O)O
# Molecular target: T1, Tyrosine-protein phosphatase non-receptor type 1 (Homo sapiens) (UniProt P18031)
# T1 sequence (whole entry): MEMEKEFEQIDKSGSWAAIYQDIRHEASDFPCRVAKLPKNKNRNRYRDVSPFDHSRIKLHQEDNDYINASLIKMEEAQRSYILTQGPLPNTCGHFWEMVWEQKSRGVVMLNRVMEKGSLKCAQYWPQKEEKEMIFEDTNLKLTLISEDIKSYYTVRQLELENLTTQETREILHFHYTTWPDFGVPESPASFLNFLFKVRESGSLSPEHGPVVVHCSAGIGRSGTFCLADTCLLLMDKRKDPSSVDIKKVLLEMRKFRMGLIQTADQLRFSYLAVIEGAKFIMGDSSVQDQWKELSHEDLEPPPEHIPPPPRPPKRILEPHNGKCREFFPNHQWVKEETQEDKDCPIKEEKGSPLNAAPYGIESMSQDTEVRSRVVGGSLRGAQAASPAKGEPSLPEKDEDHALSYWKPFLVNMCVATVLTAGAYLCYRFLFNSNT
# Assay: Inhibition of N-terminal His tagged recombinant human PTP1B expressed in Escherichia coli using pNPP as substrate assessed as substrate hydrolysis at 40 umol/L relative to control
# Details: dose 40.0 µmol/L
row,Compound,inhibition [%]
1,CC[C@H](C)[C@H](NC(=O)CC(=O)O)C(=O)N[C@@H](C)C(=O)N[C@@H](CCC(N)=O)C(=O)N[C@@H](CCC(=O)O)C(=O)N[C@@H](CC(C)C)C(=O)N[C@@H](CCCNC(=N)N)C(=O)N[C@@H](CCCNC(=N)N)C(=O)N[C@H](C(=O)NCC(=O)N[C@@H](CC(=O)O)C(=O)N[C@@H](CCC(=O)O)C(=O)N[C@@H](Cc1ccccc1)C(=O)O)[C@@H](C)CC (Malonyl-IAQELRRIGDEF-OH),< 50
2,CCCCCC(=O)N[C@H](C(=O)N[C@@H](C)C(=O)N[C@@H](CCC(N)=O)C(=O)N[C@@H](CCC(=O)O)C(=O)N[C@@H](CC(C)C)C(=O)N[C@@H](CCCNC(=N)N)C(=O)N[C@@H](CCCNC(=N)N)C(=O)N[C@H](C(=O)NCC(=O)N[C@@H](CC(=O)O)C(=O)N[C@@H](CCC(=O)O)C(=O)N[C@@H](Cc1ccccc1)C(=O)O)[C@@H](C)CC)[C@@H](C)CC (Hexanoyl-IAQELRRIGDEF-OH),< 50
3,Ac-IAQELRRIGDEF-OH,< 50
4,CC[C@H](C)[C@H](NC(=O)CCCC(=O)O)C(=O)N[C@@H](C)C(=O)N[C@@H](CCC(N)=O)C(=O)N[C@@H](CCC(=O)O)C(=O)N[C@@H](CC(C)C)C(=O)N[C@@H](CCCNC(=N)N)C(=O)N[C@@H](CCCNC(=N)N)C(=O)N[C@H](C(=O)NCC(=O)N[C@@H](CC(=O)O)C(=O)N[C@@H](CCC(=O)O)C(=O)N[C@@H](Cc1ccccc1)C(=O)O)[C@@H](C)CC (Glutaryl-IAQELRRIGDEF-OH),< 50
5,CCCCC(=O)N[C@H](C(=O)N[C@@H](C)C(=O)N[C@@H](CCC(N)=O)C(=O)N[C@@H](CCC(=O)O)C(=O)N[C@@H](CC(C)C)C(=O)N[C@@H](CCCNC(=N)N)C(=O)N[C@@H](CCCNC(=N)N)C(=O)N[C@H](C(=O)NCC(=O)N[C@@H](CC(=O)O)C(=O)N[C@@H](CCC(=O)O)C(=O)N[C@@H](Cc1ccccc1)C(=O)O)[C@@H](C)CC)[C@@H](C)CC (Pentanoyl-IAQELRRIGDEF-OH),< 50
6,CC[C@H](C)[C@H](NC(=O)COCCOCCNC(=O)COCCOCCNC(=O)CC[C@H](NC(=O)CCCCCCCCCCCCCCCCC(=O)O)C(=O)O)C(=O)N[C@@H](C)C(=O)N[C@@H](CCC(N)=O)C(=O)N[C@@H](CCC(=O)O)C(=O)N[C@@H](CC(C)C)C(=O)N[C@@H](CCCNC(=N)N)C(=O)N[C@@H](CCCNC(=N)N)C(=O)N[C@H](C(=O)NCC(=O)N[C@@H](CC(=O)O)C(=O)N[C@@H](CCC(=O)O)C(=O)N[C@@H](Cc1ccccc1)C(=O)O)[C@@H](C)CC ({C18 diacid-γGlu-AEEA-AEEA}-IAQELRRIGDEF-OH),< 50

# Next, values leading:
row,inhibition [%],Compound
1,< 50,CCCCCCC(=O)N[C@H](C(=O)N[C@@H](C)C(=O)N[C@@H](CCC(N)=O)C(=O)N[C@@H](CCC(=O)O)C(=O)N[C@@H](CC(C)C)C(=O)N[C@@H](CCCNC(=N)N)C(=O)N[C@@H](CCCNC(=N)N)C(=O)N[C@H](C(=O)NCC(=O)N[C@@H](CC(=O)O)C(=O)N[C@@H](CCC(=O)O)C(=O)N[C@@H](Cc1ccccc1)C(=O)O)[C@@H](C)CC)[C@@H](C)CC (Heptanoyl-IAQELRRIGDEF-OH)
2,< 50,CC[C@H](C)[C@H](NC(=O)CCCCCCC(=O)O)C(=O)N[C@@H](C)C(=O)N[C@@H](CCC(N)=O)C(=O)N[C@@H](CCC(=O)O)C(=O)N[C@@H](CC(C)C)C(=O)N[C@@H](CCCNC(=N)N)C(=O)N[C@@H](CCCNC(=N)N)C(=O)N[C@H](C(=O)NCC(=O)N[C@@H](CC(=O)O)C(=O)N[C@@H](CCC(=O)O)C(=O)N[C@@H](Cc1ccccc1)C(=O)O)[C@@H](C)CC ({HOOC(CH2)6CO}-IAQELRRIGDEF-OH)
3,< 50,CC[C@H](C)[C@H](NC(=O)CCCCCCCCCCCCC(=O)O)C(=O)N[C@@H](C)C(=O)N[C@@H](CCC(N)=O)C(=O)N[C@@H](CCC(=O)O)C(=O)N[C@@H](CC(C)C)C(=O)N[C@@H](CCCNC(=N)N)C(=O)NC(CCCNC(=N)N)C(=O)N[C@H](C(=O)NCC(=O)N[C@@H](CC(=O)O)C(=O)N[C@@H](CCC(=O)O)C(=O)N[C@@H](Cc1ccccc1)C(=O)O)[C@@H](C)CC (stereo not given in full) ({C14 diacid}-IAQELR[ξR]IGDEF-OH)
4,< 50,CC[C@H](C)[C@H](NC(=O)CCCCC(=O)O)C(=O)N[C@@H](C)C(=O)N[C@@H](CCC(N)=O)C(=O)N[C@@H](CCC(=O)O)C(=O)N[C@@H](CC(C)C)C(=O)N[C@@H](CCCNC(=N)N)C(=O)N[C@@H](CCCNC(=N)N)C(=O)N[C@H](C(=O)NCC(=O)N[C@@H](CC(=O)O)C(=O)N[C@@H](CCC(=O)O)C(=O)N[C@@H](Cc1ccccc1)C(=O)O)[C@@H](C)CC (Adipoyl-IAQELRRIGDEF-OH)
